The values that follow come from patent US10837957B2, “In vitro model for pathological or physiologic conditions” (HemoShear, LLC, priority 2012, dated 2020).

One series deals with cytochrome p450 1A/1B. As to the kind of experiment: Cytochrome p450 activity assay (P450-GLO) in hepatocytes, induction.
The subject of a further series is primary rat hepatocytes. As to the kind of experiment: Toxicity to hepatocytes cultured under controlled flow. Conditions: 50 μM dexamethasone.
Another series concerns cytochrome p450 3A. As to the kind of experiment: Cytochrome p450 activity assay (P450-GLO) in hepatocytes, induction. Format: cell-based, rat. Conditions: controlled hemodynamics 0.6 dynes/cm^2, dexamethasone 02.5 μM, 48 hours, day 7; DMSO 11.64.
The subject of series [1] is endothelial cells and smooth muscle cells. As to the kind of experiment: Aldosterone in hemodynamic environment: gene array analysis. The series is classed as cell-based. To be noted: aldosterone 1 mM vs vehicle; healthy and atheroprone. Here is the method: Aldosterone at a concentration of 1 mM or a vehicle control (VEH) was added to the upper volume and RNA was collected for gene array analysis.

The test system is the same in series [2]. As to the kind of experiment: ANG2 in hemodynamic environment: gene array analysis. Conditions: ANG2 10 nM (10.46 ng/ml) vs DMSO vehicle; healthy and atheroprone. Format: cell-based. Here is the method: ANG2 at a concentration of 10 nM (10.46 ng/ml) or a DMSO vehicle control (VEH) was added to the upper volume and RNA was collected for gene array analysis.

Series [3] has as its system endothelial cell/smooth muscle cell co-cultures. As to the kind of experiment: HDL in hemodynamic environment. The series is classed as cell-based. To be noted: HDL 45 μg/ml or 90 μg/ml, hemodynamic shear stress. As to the method:
An additional component of plasma cholesterol distinct from nLDL or oxLDL is HDL. […] HDL was then added to the upper volume at a concentration of 45-1,000 μg/ml. This broad range reflects the broad range of HDL concentrations that can exist within human patients. HDL concentrations in individuals at risk for vascular disease are generally less than about 300 μg/ml, while HDL concentrations in healthy individuals range from greater than about 300 μg/ml up to about 2,000 μg/ml in healthy exercising patients.
In additional experiments, endothelial cell/smooth muscle cell co-cultures plated as described above were preconditioned for 16 hours with hemodynamic shear stress. From hours 16-24 the cells were additionally primed with 0.05 ng/ml TNFα and 50 μg/ml of oxLDL (compared to a vehicle control containing 50 μg/ml nLDL) in the upper volume. At 24 hours, 45 μg/ml or 90 μg/ml HDL was added to the media in the upper volume and hemodynamic shear stress was continued for the next 24 hours (hours 24-48).

For series [4], the system named is endothelial cells. As to the kind of experiment: oxLDL and TNFα in hemodynamic environment: RT-PCR gene expression. Format: cell-based. Conditions: atheroprone. As to the method: To emulate more inflammatory stages of atherosclerosis, it is desirable to combine multiple circulating factors to better emulate the complexity found within human blood vessels. […] The media in the upper volume was then exchanged for media containing 0.05 ng/ml TNFα and 50 μg/ml of oxLDL. Media containing only 50 μg/ml of nLDL was used as a control.
Following 24 hours of shear stress preconditioning with atheroprotective or atheroprone hemodynamic forces, 50 μg/ml of oxLDL and 0.05 ng/ml of TNFα were added to upper volume (containing the endothelial cells). This concentration of TNFα is similar to plasma concentrations of TNFα observed in patients with cardiovascular disease. In devices not receiving oxLDL, nLDL was added to the upper volume at the same concentration and used as a vehicle control. Shear stress application was continued for an additional 24 hours in the presence of TNF-a and oxLDL (see FIG. 5). Gene expression analysis was performed using RT-PCR.

Series [5] has as its system endothelial cells and smooth muscle cells. As to the kind of experiment: oxLDL in hemodynamic environment: gene array, gene, protein and cytokine expression in co-culture. Format: cell-based. To be noted: for number of genes regulated as compared to nLDL: atheroprone, 50 μg/ml oxLDL vs 50 μg/ml nLDL. Here is the method: Following 16-24 hours of shear stress preconditioning with atheroprotective or atheroprone hemodynamic forces, oxLDL was added to upper volume (containing the endothelial cells) at a concentration of 10-50 μg/ml (FIG. 5). In devices not receiving oxLDL, nLDL was added to the upper volume at the same concentration and used as a vehicle control. This concentration of oxLDL is similar to plasma concentrations of oxLDL observed in patients with cardiovascular disease. Shear stress application was continued for an additional 24 hours in the presence of oxLDL.
(§1) Five different donor pairs were used to analyze the oxLDL (50 μg/ml) response compared to nLDL (50 μg/ml) within the atheroprone hemodynamic environment in endothelial cells and smooth muscle cells. […] Significant genes were considered using an FDR of 0.01. Gene expression results are reported as the relative expression of the gene as compared to the expression of β-2 microglobulin (B2M). Protein expression results are reported as the relative expression of the protein as compared to the expression of actin. Activity of NFκB was assessed using an adenovirus NFκB-luciferase (Ad-NFKB-luc) reporter infected in ECs and SMCs.

The next series concerns NFκB. As to the kind of experiment: Adenovirus NFκB-luciferase reporter in ECs and SMCs. The series is classed as cell-based. Here is the method:
as §1

For series [6], the system named is endothelial cells. As to the kind of experiment: TNFα in hemodynamic environment: inflammatory gene expression. The series is classed as cell-based. Conditions: 0.1-1 ng/ml TNFα, atheroprone hemodynamic forces; not seen at same levels in static. Here is the method:
Following 24 hours of shear stress preconditioning with atheroprotective or atheroprone hemodynamic forces, TNFα was added to upper volume (containing the endothelial cells) at a concentration of 0.05-1 ng/ml (see FIG. 5). This concentration of TNFα is similar to plasma concentrations of TNFα observed in patients with cardiovascular disease. Shear stress application was continued for an additional 24 hours in the presence of TNFα.

The subject of series [7] is endothelial cells. As to the kind of experiment: Static monoculture thrombosis assay (A488-fibrin deposition by confocal microscopy). To be noted: static conditions; for fibrin deposition, mean fluorescence intensity: 4 hours. The series is classed as cell-based, human. As to the method: (§2) Human endothelial cells were co-cultured with or without smooth muscle cells in the presence or absence of human-derived, region-specific hemodynamics. Endothelial cells were exposed to TNFα at various concentrations and incubated in human, platelet-free plasma supplemented by ALEXA FLUOR 488 (A488, a fluorescent dye)-labeled fibrinogen. Conversion of A488-fibrinogen to A488-fibrin and deposition on the endothelium was quantified by confocal microscopy.
For static monocultures of endothelial cells, endothelial cells were plated at 100,000 cells/cm^2 on coverslips and allowed to adhere for 24 hours. After 24 hours, media was exchanged with media containing 0 ng/ml, 1 ng/ml, 10 ng/ml, or 20 ng/ml TNFα. Cells were incubated for 4 hours at 37° C. Following incubation, media was removed and cells were washed twice with PBS. Cells were then incubated an additional 15 minutes at 37° C. with Human Platelet Free Plasma (PFP) supplemented with 37.5 μg/mL ALEXA-488 human fibrinogen, 20 μg/mL corn trypsin inhibitor, and 10 mM calcium. This protocol is depicted in FIG. 1A. After 15 minutes, the cells were fixed with 4% paraformaldehyde (PFA) and stained with 0.5 nM SYT083 (a fluorescent nucleic acid stain) in 10 mM Tris, 1 mM EDTA buffer for 45 minutes. Coverslips were mounted onto coverglass using FLUOROMOUNT-G (a mounting agent) and imaged.

Series [8] concerns Endothelial/smooth muscle cell co-cultures. As to the kind of experiment: Coculture thrombosis assay with shear stress, Protocol A (fibrin deposition). Format: cell-based, human. Here is the method:
as §2
Following 24 hours of shear stress application (atheroprone or atheroprotective), the media was supplemented with TNFα at a concentration of 0.05 ng/mL or 0.10 ng/mL and shear stress was continued for an additional 24 hours, as shown in FIG. 3A. Media was then removed from both the upper and lower chambers, and both the endothelial cells and smooth muscle cells are washed twice with PBS. Endothelial cells were then incubated for 15 minutes at 37° C. with PFP supplemented with 37.5 μg/mL ALEXA-488 human fibrinogen, 20 μg/mL corn trypsin inhibitor, and 10 mM calcium, and fixed and imaged as described above for monocultures.

The subject of series [9] is Tissue Factor Pathway Inhibitor (TFPI). As to the kind of experiment: Expression of genes relevant to thrombosis in co-cultures under hemodynamic flow. Format: cell-based, human. Conditions: TNFα stimulation; both endothelial and smooth muscle cells. The source says: FIG. 2B depicts a heat map of relative gene expression in endothelial and smooth muscle cells (grown under atheroprone or atheroprotective conditions; see FIG. 2A) of several genes relevant to thrombosis. The relative changes in gene expression of Tissue Factor (F3) and Thrombomodulin (THBD) are presented below the heat map. Atheroprone hemodynamics up-regulate Tissue Factor (F3) compared to atheroprotective shear stress. […] In addition, TNFα stimulation reduces Tissue Factor Pathway Inhibitor (TFPI) in both endothelial and smooth muscle cells.

[10] abbreviates: atheroprone hemodynamic environment.

Protocol for cytochrome p450 1A/1B: (§3) Porous membrane segments roughly 2 cm^2 in area were excised and transferred to standard 24-well plates alongside corresponding static cultures. The cells were incubated with 500 μl of hepatocyte media containing substrates from commercially available P450-GLO kits (kits for luminescent cytochrome p450 assays) at the manufacturer-recommended concentrations. After 4 hours, the media was transferred to 96-well plates and assayed for luminescent metabolites to reflect cytochrome p450 activity as per the manufacturer protocol.
(§4) After 48 hours, on day 7, segments of the porous membrane from the devices containing hepatocytes cultured under controlled hemodynamics that were roughly 2.0 cm^2 in area were excised and transferred to standard 24-well plates and treated with substrates for the Cyp p450 enzymes in parallel to corresponding static cultures treated with the different agents. Cytochrome p450 assays were done on day 7 using commercially available P450-GLO kits. After 4 hours the media was transferred to 96-well plates and assayed for luminescent metabolites to reflect cytochrome p450 activity.
Protocol for cytochrome p450 3A: as §3, §4
Protocol for primary rat hepatocytes: Cytochrome p450 assays were done on day 7 using commercially available P450-GLO kits. After 4 hours the media was transferred to 96-well plates and assayed for luminescent metabolites to reflect cytochrome p450 activity.

For `Cc1ccc2cc3c(ccc4ccccc43)c3c2c1CC3` [3-MC, 3-Methyl Cholanthrene], the “fold lower levels giving induction responses under controlled hemodynamics” value in the series with cytochrome p450 1A/1B (compared to static (1 μM static, 0.1 μM controlled hemodynamics)) is on record as 10 fold. Moreover, the “1A/1B response to inducer (cytochrome p450 activity normalized to ATP)” value in the series with cytochrome p450 1A/1B (controlled hemodynamics 0.6 dynes/cm^2, 3-MC 0.1 μM, 48 hours, day 7, DMSO 4.87) was 133.06.
On to `C[C@@H]1C[C@H]2[C@@H]3CCC4=CC(=O)C=C[C@]4(C)[C@@]3(F)[C@@H](O)C[C@]2(C)[C@@]1(O)C(=O)CO` [Dexamethasone, dexamethasone], for which the toxicity entry in the series with primary rat hepatocytes was “toxic”. The “3A response to inducer (cytochrome p450 activity normalized to ATP)” value in the series with cytochrome p450 3A amounted to 57.53.
Regarding `C[C@]12CCC(=O)C=C1CC[C@@H]1[C@@H]2[C@@H](O)C[C@]2(C=O)[C@@H](C(=O)CO)CC[C@@H]12` [aldosterone, Aldosterone], the “inflammatory genes (gene array)” value in [1] is recorded as “upregulated”.
Regarding “Angiotensin II (DRVYIHPF; Angiotensin-2; UniProt P01019 25-32, looked up) [ANG2]”, in series [2], the “inflammatory genes (gene array)” value is “upregulated”.
high-density lipoprotein [HDL]: in series [3], the “activation of pro-inflammatory genes and proteins” value was “blocking activation”; the atheroprotective genes entry is reported as “activates”.
Turning to “oxidized low-density lipoprotein [oxLDL]”, the “eNOS gene expression (NOS3)” value in the series with endothelial cells [4] (50 μg/ml oxLDL) is recorded as “reduced”. The “E-Selectin (SELE) gene expression” value in the series on endothelial cells [4] (50 μg/ml oxLDL vs nLDL control) is reported as “higher levels”. For the same compound, the “atheroprotective signaling (eNOS and KLF2) gene expression” value in series [5] (atheroprone conditions) is “reduced atheroprotective signaling”. The “HO-1 and ATF3 gene expression” value in series [5] (atheroprone conditions compared to traditional static, oxLDL 10-50 μg/ml vs nLDL) was “activates these genes at much higher levels”. Further, the “inflammatory genes IL8 and E-Selectin (SELE) expression” value in series [5] (atheroprone conditions, not regulated in static cultures) was “activate”. In addition, in [5] (setting [10]), the VCAM-1 protein expression result is given as “elevated”; the “phosphorylation of eNOS” value was “reduced phosphorylation”; the “secreted cytokines IL6, IL8 and MCP-1” value is on record as “increased levels”. Also, the “number of genes regulated as compared to nLDL” value in series [5] (endothelial cells, 5 donors) stood at 688 genes. Besides, the “number of genes regulated as compared to nLDL” value in series [5] (smooth muscle cells, 4 donors) is 304 genes. The “NFκB activity (luciferase reporter)” value in the series on NFκB (endothelial cells, atheroprone hemodynamics) is listed as “further heightened”. The “NFκB signaling (luciferase reporter)” value with NFκB (smooth muscle cells, oxLDL added to upper volume only) is “elevated NFKB signaling”.
For the compound tumor necrosis factor-α [TNFα], the “inflammatory response (E-Selectin, ICAM, VCAM, IL8 expression)” value in the series with endothelial cells [6] is “induced an inflammatory response”. For the same compound, the “fibrin deposition, mean fluorescence intensity” value with endothelial cells [7] (1 ng/ml TNFα) turned out to be 1.17e5; in the series on endothelial cells [7] (10 ng/ml TNFα), 2.69e7; with endothelial cells [7] (20 ng/ml TNFα), 3.61e7; in series [8] (0.05 ng/ml TNFα, 24 hours, atheroprone hemodynamics from internal carotid sinus, Protocol A), 1.9e7. Besides, in the series on endothelial cells [7], the “TNFα concentration needed for activation relative to physiological levels” value is given as “approximately 200 fold”. For the same compound, the “fold lower levels of TNFα inducing fibrin deposition as compared to static cultures” value in [8] (atheroprone hemodynamic priming) is 100- to 200 fold. The “Tissue Factor Pathway Inhibitor (TFPI) expression” value in series [9] was “reduces”.
